Assay results reported in patent US8440830B2, “Tetrahydro-fused pyridines as histone deacetylase inhibitors” (4SC AG, priority 2007, dated 2013).

These compounds were tested on A549 NSCLC cells (assay: Cellular cytotoxicity assay (Alamar Blue), A549). Conditions: Homo sapiens, 72 h, upper end given as ≧100, read-out: IC50 (μM), cytotoxicity towards A549 NSCLC cells.
Type: cell-based
Experimental: The anti-proliferative activity of the histone deacetylase inhibitory compounds as described herein, is evaluated using the following cell lines: HeLa and HeLa-KB (cervical carcinoma), H460 (non small cell lung cancer), A549 (non-small cell lung cancer), MCF7 (breast carcinoma), MCF10A (normal, non tumorigenic breast epithelial), MDA-MB468 (breast carcinoma), MDA-MB435 (breast carcinoma), MDA-MB231 (breast carcinoma), SKBR-3 (breast carcinoma), SKOV-3 (ovarial carcinoma), A-2780 (ovarial carcinoma), RKO (colon carcinoma), HCT-15 (colon carcinoma), HCT-116 (colon carcinoma), PC3 (prostate carcinoma), BPH1 (benign prostate hyperplasia), AsPC1 (pancreatic carcinoma), Ca127 (tongue carcinoma), A-431 (vulva carcinoma), Hec1A (endometrial carcinoma), Saos-2 (osteosarcoma), U87MG (glioblastoma), WM266-4 (melanoma), K562 (chronic myeloid leukemia), EOL1 (acute hypereosinophilic myeloid leukemia), CCRF-CEM and CCRF-CEM VCR1000 (acute lymphoblastic leukemia sensitive and resistant towards Vincristine). For quantification of cellular proliferation/living cells the Alamar Blue (Resazurin) cell viability assay is applied (O'Brien et al. Eur J Biochem 267, 5421-5426, 2000). In this assay Resazurin is reduced to the fluorescent resorufine by cellular dehydrogenase activity, correlating with viable, proliferating cells. The examples are dissolved as 20 mM solutions in dimethylsulfoxide (DMSO) and subsequently diluted in semi-logarithmic steps. Cell lines are seeded at respective density into 96 well flat bottom plates in a volume of 200 μl per well. 24 h after seeding 1 μl each of the compound dilutions are added into each well of the 96 well plate. Each compound dilution is tested as quadruplicates. Wells containing untreated control cells are filled with 200 μl DMEM medium containing 0.5% v:v DMSO. The cells are then incubated with the compounds for 72 h at 37° C. in a humidified atmosphere containing 5% carbon dioxide. To determine the viability of the cells, 20 μl of a Resazurin solution (Sigma; 90 mg/l) are added. After 4 h incubation at 37° C. the fluorescence is measured at an extinction of λ=544 nm and an emission of λ=590 nm. For the calculation of the cell viability the emission value from untreated cells is set as 100% viability and the emission rates of treated cells are set in relation to the values of untreated cells. Viabilities are expressed as % values. The corresponding IC50 values of the compounds for cytotoxic activity are determined from the concentration-effect curves by means of non-linear regression.

SMILES | IC50 [µM]
COC(=O)c1ccc(NC(=O)N2CCc3nc(C(=O)Nc4ccccc4N)sc3C2)cc1 [Example 5, Methyl 4-[({2-[(2-aminophenyl)carbamoyl]-6,7-dihydro[1,3]thiazolo[5,4-c]pyridin-5(4H)-yl}carbonyl)amino]benzoate] | ≥ 0.2
Nc1ccccc1NC(=O)c1nc2c(s1)CN(C(=O)Nc1ccc(Oc3ccccc3)cc1)CC2 [Example 6, N^2-(2-aminophenyl)-N5-(4-phenoxyphenyl)-6,7-dihydro[1,3]thiazolo[5,4-c]pyridine-2,5(4H)-dicarboxamide] | ≥ 0.2
Nc1ccccc1NC(=O)c1nc2c(s1)CN(C(=O)Nc1ccccc1OC(F)(F)F)CC2 [Example 8, N^2-(2-aminophenyl)-N5-[2-(trifluoromethoxy)phenyl]-6,7-dihydro[1,3]thiazolo[5,4-c]pyridine-2,5(4H)-dicarboxamide] | ≥ 0.2
Nc1ccccc1NC(=O)c1nc2c(s1)CN(C(=O)Nc1ccc(OC(F)(F)F)cc1)CC2 [Example 9, N^2-(2-aminophenyl)-N5-[4-(trifluoromethoxy)phenyl]-6,7-dihydro[1,3]thiazolo[5,4-c]pyridine-2,5(4H)-dicarboxamide] | ≥ 0.2
Nc1ccccc1NC(=O)c1nc2c(s1)CN(C(=O)Nc1ccccc1OC(F)F)CC2 [Example 10, N^2-(2-aminophenyl)-N5-[2-(difluoromethoxy)phenyl]-6,7-dihydro[1,3]thiazolo[5,4-c]pyridine-2,5(4H)-dicarboxamide] | ≥ 0.2
Nc1ccccc1NC(=O)c1nc2c(s1)CN(C(=O)Nc1ccc(OC(F)F)cc1)CC2 [Example 11, N^2-(2-aminophenyl)-N5-[4-(difluoromethoxy)phenyl]-6,7-dihydro[1,3]thiazolo[5,4-c]pyridine-2,5(4H)-dicarboxamide] | ≥ 0.2
CNC(=O)N1CCc2nc(C(=O)Nc3ccccc3N)sc2C1 [Example 17, N^2-(2-aminophenyl)-N^5-methyl-6,7-dihydro[1,3]thiazolo[5,4-c]pyridine-2,5(4H)-dicarboxamide] | ≥ 0.2
COCCN(C)C(=O)N1CCc2nc(C(=O)Nc3ccccc3N)sc2C1 [Example 20, N^2-(2-aminophenyl)-N^5-(2-methoxyethyl)-N^5-methyl-6,7-dihydro[1,3]thiazolo[5,4-c]pyridine-2,5 (41:1)-dicarboxamide] | ≥ 0.2
CCN(C(=O)N1CCc2nc(C(=O)Nc3ccccc3N)sc2C1)C(C)C [Example 21, N^2-(2-aminophenyl)-N^5-ethyl-N^5-isopropyl-6,7-dihydro[1,3]thiazolo[5,4-c]-pyridine-2,5(4H)-dicarboxamide] | ≥ 0.2
CN(C)c1ccc(N(C)C(=O)N2CCc3nc(C(=O)Nc4ccccc4N)sc3C2)cc1 [Example 22, N^2-(2-aminophenyl)-N^5-[4-(dimethylamino)phenyl]-N^5-methyl-6,7-dihydro-[1,3]thiazolo[5,4-c]pyridine-2,5(4H)-dicarboxamide] | ≥ 0.2
CN(C)c1cccc(N(C)C(=O)N2CCc3nc(C(=O)Nc4ccccc4N)sc3C2)c1 [Example 23, N^2-(2-aminophenyl)-N^5-[3-(dimethylamino)phenyl]-N^5-methyl-6,7-dihydro-[1,3]-thiazolo[5,4-c]pyridine-2,5(4H)-dicarboxamide] | ≥ 0.2
COc1ccc(N(C)C(=O)N2CCc3nc(C(=O)Nc4ccccc4N)sc3C2)cc1OC [Example 24, N^2-(2-aminophenyl)-N^5-(3,4-dimethoxyphenyl)-N^5-methyl-6,7-dihydro[1,3]-thiazolo[5,4-c]pyridine-2,5(4H)-dicarboxamide] | ≥ 0.2
Nc1ccccc1NC(=O)c1nc2c(s1)CN(C(=O)Nc1ccc(N3CCOCC3)nc1)CC2 [Example 34, N^2-(2-aminophenyl)-N^5-(6-morpholin-4-ylpyridin-3-yl)-6,7-dihydro[1,3]thiazolo[5,4-c]pyridine-2,5(4H)-dicarboxamide] | ≥ 0.2
Nc1ccccc1NC(=O)c1nc2c(s1)CN(C(=O)Nc1ccc(N3CCC3)nc1)CC2 [Example 35, N^2-(2-aminophenyl)-N^5-(6-azetidin-1-ylpyridin-3-yl)-6,7-dihydro[1,3]thiazolo[5,4-c]pyridine-2,5(4H)-dicarboxamide] | ≥ 0.2
COc1ccc(NC(=O)N2CCc3nc(C(=O)Nc4ccccc4N)sc3C2)cn1 [Example 38, N^2-(2-aminophenyl)-N^5-(6-methoxypyridin-3-yl)-6,7-dihydro[1,3]thiazolo[5,4-c]pyridine-2,5(4H)-dicarboxamide] | ≥ 0.2
CCCCNC(=O)N1CCc2nc(C(=O)Nc3ccccc3N)sc2C1 [Example 40, N^2-(2-aminophenyl)-N^5-butyl-6,7-dihydro[1,3]thiazolo[5,4-c]pyridine-2,5(4H)-dicarboxamide] | ≥ 0.2
Nc1ccccc1NC(=O)c1nc2c(s1)CN(C(=O)NC1CCC(c3cccnc3)CC1)CC2 (stereo not shown) [Example 41, N^2-(2-aminophenyl)-N^5-(4-pyridin-3-ylcyclohexyl)-6,7-dihydro[1,3]thiazolo[5,4-c]pyridine-2,5(4H)-dicarboxamide] | ≥ 0.2
Nc1ccccc1NC(=O)c1nc2c(s1)CN(C(=O)NC1CCNCC1)CC2 [Example 42, N^2-(2-aminophenyl)-N^5-piperidin-4-yl-6,7-dihydro[1,3]thiazolo[5,4-c]pyridine-2,5(4H)-dicarboxamide] | ≥ 0.2
COc1ccc(NC(=O)N2CCc3nc(C(=O)Nc4cc(OC)ccc4N)sc3C2)cc1 [Example 43, N^2-(2-amino-5-methoxyphenyl)-N^5-(4-methoxyphenyl)-6,7-dihydro[1,3]thiazolo[5,4-c]pyridine-2,5(4H)-dicarboxamide] | ≥ 0.2
Nc1ccccc1NC(=O)c1nc2c(s1)CN(C(=O)NC1CCC(c3ccncc3)CC1)CC2 (stereo not shown) [Example 44, N^2-(2-aminophenyl)-N^5-(4-pyridin-4-ylcyclohexyl)-6,7-dihydro[1,3]thiazolo[5,4-c]pyridine-2,5(4H)-dicarboxamide] | ≥ 0.2
COc1ccc(NC(=O)N2CCc3nc(C(=O)Nc4cc(C(C)C)ccc4N)sc3C2)cc1 [Example 45, N^2-(2-amino-5-isopropylphenyl)-N^5-(4-methoxyphenyl)-6,7-dihydro[1,3]thiazolo[5,4-c]pyridine-2,5(4H)-dicarboxamide] | ≥ 0.2
COc1ccc(N)c(NC(=O)c2nc3c(s2)CN(C(=O)Nc2cccc4cnccc24)CC3)c1 [Example 46, N^2-(2-amino-5-methoxyphenyl)-N^5-isoquinolin-5-yl-6,7-dihydro[1,3]thiazolo[5,4-c]pyridine-2,5(4H)-dicarboxamide] | ≥ 0.2
COc1ccc(N)c(NC(=O)c2nc3c(s2)CN(C(=O)Nc2ccc(N(C)C)cc2)CC3)c1 [Example 47, N^2-(2-amino-5-methoxyphenyl)-N^5-[4-(dimethylamino)phenyl]-6,7-dihydro-[1,3]thiazolo[5,4-c]pyridine-2,5(4H)-dicarboxamide] | ≥ 0.2
COc1ccc(NC(=O)N2CCc3nc(C(=O)Nc4cc(C(C)C)ccc4N)sc3C2)cc1OC [Example 48, N^2-(2-amino-5-isopropylphenyl)-N^5-(3,4-dimethoxyphenyl)-6,7-dihydro[1,3]thiazolo[5,4-c]pyridine-2,5(4H)-dicarboxamide] | ≥ 0.2
CC(C)c1ccc(N)c(NC(=O)c2nc3c(s2)CN(C(=O)Nc2cccc4cnccc24)CC3)c1 [Example 49, N^2-(2-amino-5-isopropylphenyl)-N^5-isoquinolin-5-yl-6,7-dihydro[1,3]thiazolo[5,4-c]pyridine-2,5(4H)-dicarboxamide] | ≥ 0.2
CC(C)c1ccc(N)c(NC(=O)c2nc3c(s2)CN(C(=O)Nc2ccc(N(C)C)cc2)CC3)c1 [Example 50, N^2-(2-amino-5-isopropylphenyl)-N^5-[4-(dimethylamino)phenyl]-6,7-dihydro[1,3]thiazolo[5,4-c]pyridine-2,5(4H)-dicarboxamide] | ≥ 0.2
COc1ccc(N)c(NC(=O)c2nc3c(s2)CN(C(=O)Nc2ccc(F)cc2)CC3)c1 [Example 51, N^2-(2-amino-5-methoxyphenyl)-N^5-(4-fluorophenyl)-6,7-dihydro[1,3]thiazolo[5,4-c]pyridine-2,5(4H)-dicarboxamide] | ≥ 0.2
CC(C)c1ccc(N)c(NC(=O)c2nc3c(s2)CN(C(=O)Nc2ccc(F)cc2)CC3)c1 [Example 52, N^2-(2-amino-5-isopropylphenyl)-N^5-(4-fluorophenyl)-6,7-dihydro[1,3]thiazolo[5,4-c]pyridine-2,5(4H)-dicarboxamide] | ≥ 0.2
